Results on seven compounds are retold here after PMC8792198 (Journal of pharmaceutical sciences, 2021).

Series [1] concerns placental BM vesicles. The note with it: cited from earlier work.
The next series deals with OATP5A1 (Homo sapiens, UniProt Q9H2Y9). The experiment in a line: Uptake into HEK293 cells stably overexpressing OATP5A1. The series is classed as in vitro ADME. The note with it: for transport by OATP5A1 in HEK293-OATP5A1 cells: pH 7.4.
Series [2] deals with T1, OATP2A1 (Homo sapiens, UniProt Q92959). The experiment in a line: Uptake into HEK293 cells stably overexpressing OATP2A1. The note with it: 1 min. The series is classed as in vitro ADME.
For a further series, the target named is T2, OATP1A2 (Homo sapiens, UniProt P46721).
T2 sequence (P46721 1-670): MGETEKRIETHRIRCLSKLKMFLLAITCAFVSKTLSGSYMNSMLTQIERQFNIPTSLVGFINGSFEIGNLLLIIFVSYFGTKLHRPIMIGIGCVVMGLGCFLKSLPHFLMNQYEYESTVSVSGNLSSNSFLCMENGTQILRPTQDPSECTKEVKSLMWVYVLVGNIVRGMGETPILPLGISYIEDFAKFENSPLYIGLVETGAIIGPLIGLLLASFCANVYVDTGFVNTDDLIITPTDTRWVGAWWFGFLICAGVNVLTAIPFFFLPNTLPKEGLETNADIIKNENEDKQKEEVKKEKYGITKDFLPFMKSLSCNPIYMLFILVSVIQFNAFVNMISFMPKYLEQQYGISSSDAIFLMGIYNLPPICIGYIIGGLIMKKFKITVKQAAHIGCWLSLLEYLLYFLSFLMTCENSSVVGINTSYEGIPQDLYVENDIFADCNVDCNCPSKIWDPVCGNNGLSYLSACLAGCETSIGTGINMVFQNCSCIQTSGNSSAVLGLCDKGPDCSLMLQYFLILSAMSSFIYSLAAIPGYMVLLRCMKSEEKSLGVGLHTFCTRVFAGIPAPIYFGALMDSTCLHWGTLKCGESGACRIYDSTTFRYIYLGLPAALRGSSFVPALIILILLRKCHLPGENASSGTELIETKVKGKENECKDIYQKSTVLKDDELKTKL
In words: Uptake into HEK293 cells transiently overexpressing OATP1A2. The series is classed as in vitro ADME.

For another series, the system named is placental AM vesicles. The experiment in a line: Glutarate-stimulated uptake of pravastatin by placental AM vesicles. Type of series: in vitro ADME, human. The note with it: 1 μM [3H]Pravastatin, 37°C.
The subject of a further series is placenta. The note with it: ex vivo placental perfusion; cited from earlier work.
The target of series [3] is T3, OAT4 (Homo sapiens, UniProt Q9NSA0).
T3 sequence (Q9NSA0 1-550): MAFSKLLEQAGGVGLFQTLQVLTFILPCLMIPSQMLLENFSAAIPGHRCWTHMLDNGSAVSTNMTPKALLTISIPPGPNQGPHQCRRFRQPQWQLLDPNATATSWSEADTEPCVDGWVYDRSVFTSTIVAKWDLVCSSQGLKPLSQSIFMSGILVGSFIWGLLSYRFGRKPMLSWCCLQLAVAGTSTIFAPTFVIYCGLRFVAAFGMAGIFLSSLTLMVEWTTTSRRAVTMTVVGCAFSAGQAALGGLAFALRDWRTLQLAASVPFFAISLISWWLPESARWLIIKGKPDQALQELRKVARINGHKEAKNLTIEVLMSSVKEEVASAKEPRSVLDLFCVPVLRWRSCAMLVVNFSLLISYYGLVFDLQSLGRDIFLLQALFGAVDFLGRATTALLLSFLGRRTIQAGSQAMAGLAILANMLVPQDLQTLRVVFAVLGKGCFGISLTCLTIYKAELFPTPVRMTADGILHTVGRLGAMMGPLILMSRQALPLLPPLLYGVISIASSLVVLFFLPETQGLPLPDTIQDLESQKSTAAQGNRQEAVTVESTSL
In words: OAT4-mediated efflux of preloaded pravastatin from T-REx-OAT4-293 cells. The series is classed as in vitro ADME.

The conditions of series [4]: pregnant women taking 10 mg daily dose; cited from earlier work.
Series [5] deals with T3, OAT4. In words: Uptake into tetracycline-inducible T-REx-OAT4-293 cells. The note with it: for Uptake, Net (transporter-mediated) / Uptake, Transporter-expressing cells: OAT4, 4 μM pravastatin; for Kt / Vmax: OAT4-mediated uptake, physiological pH, 37°C; for Uptake, Control: control cells for OAT4, 4 μM pravastatin.
For series [6], the system named is placental BM vesicles. In words: Glutarate-stimulated uptake of pravastatin by placental BM vesicles. Type of series: in vitro ADME, human.
The target of a further series is T4, OATP2B1 (Homo sapiens, UniProt O94956).
T4 sequence (O94956 1-709): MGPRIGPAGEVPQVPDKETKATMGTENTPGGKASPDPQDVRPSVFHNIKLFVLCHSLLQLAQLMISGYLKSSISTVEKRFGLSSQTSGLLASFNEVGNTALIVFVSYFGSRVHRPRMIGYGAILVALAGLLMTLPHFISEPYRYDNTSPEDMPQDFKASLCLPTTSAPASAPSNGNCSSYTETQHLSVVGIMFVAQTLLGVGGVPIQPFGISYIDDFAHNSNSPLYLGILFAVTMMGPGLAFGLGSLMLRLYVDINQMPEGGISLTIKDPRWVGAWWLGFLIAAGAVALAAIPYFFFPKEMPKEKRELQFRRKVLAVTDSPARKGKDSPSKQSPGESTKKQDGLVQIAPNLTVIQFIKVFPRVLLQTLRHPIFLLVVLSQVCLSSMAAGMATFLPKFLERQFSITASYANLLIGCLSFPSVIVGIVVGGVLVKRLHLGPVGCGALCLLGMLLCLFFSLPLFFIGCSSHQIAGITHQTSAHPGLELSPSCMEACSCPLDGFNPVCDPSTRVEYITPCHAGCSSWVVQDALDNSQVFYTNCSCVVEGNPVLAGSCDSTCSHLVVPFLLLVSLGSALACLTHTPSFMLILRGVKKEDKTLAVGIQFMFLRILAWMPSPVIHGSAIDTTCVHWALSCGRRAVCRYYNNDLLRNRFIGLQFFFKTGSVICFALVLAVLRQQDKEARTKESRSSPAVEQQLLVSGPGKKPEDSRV

Series [7] has as its system OAT4. The note with it: S2 cells expressing OAT4, single component saturation kinetics; ref 20 (Nakagomi-Hagihara et al, 2007); cited from earlier work.
Series [8] addresses T1, OATP2A1. The note with it: 2 μM pravastatin.
Series [9] concerns the target T3, OAT4. The experiment in a line: Effect of E3S on OAT4-mediated uptake of pravastatin. The note with it: E3S (200 μM), 2 μM pravastatin. Type of series: in vitro ADME.
The mark [10] stands for this setting: OATP2A1-mediated uptake, physiological pH, 37°C.
Setting [11] is: OATP1A2-mediated uptake at pH 6.0.
Setting [12] is: OATP1A2-mediated uptake, physiological pH, 37°C, 30 s.
[13] abbreviates: GA (glutaric acid preload), 30 s.
The mark [14] stands for this setting: higher concentration range (low affinity).

Several values for one entry are separate records, joined by “and”; a condition that tells them apart may be missing. Identical values can stand only once.

OATP5A1, sequence (Q9H2Y9 whole entry): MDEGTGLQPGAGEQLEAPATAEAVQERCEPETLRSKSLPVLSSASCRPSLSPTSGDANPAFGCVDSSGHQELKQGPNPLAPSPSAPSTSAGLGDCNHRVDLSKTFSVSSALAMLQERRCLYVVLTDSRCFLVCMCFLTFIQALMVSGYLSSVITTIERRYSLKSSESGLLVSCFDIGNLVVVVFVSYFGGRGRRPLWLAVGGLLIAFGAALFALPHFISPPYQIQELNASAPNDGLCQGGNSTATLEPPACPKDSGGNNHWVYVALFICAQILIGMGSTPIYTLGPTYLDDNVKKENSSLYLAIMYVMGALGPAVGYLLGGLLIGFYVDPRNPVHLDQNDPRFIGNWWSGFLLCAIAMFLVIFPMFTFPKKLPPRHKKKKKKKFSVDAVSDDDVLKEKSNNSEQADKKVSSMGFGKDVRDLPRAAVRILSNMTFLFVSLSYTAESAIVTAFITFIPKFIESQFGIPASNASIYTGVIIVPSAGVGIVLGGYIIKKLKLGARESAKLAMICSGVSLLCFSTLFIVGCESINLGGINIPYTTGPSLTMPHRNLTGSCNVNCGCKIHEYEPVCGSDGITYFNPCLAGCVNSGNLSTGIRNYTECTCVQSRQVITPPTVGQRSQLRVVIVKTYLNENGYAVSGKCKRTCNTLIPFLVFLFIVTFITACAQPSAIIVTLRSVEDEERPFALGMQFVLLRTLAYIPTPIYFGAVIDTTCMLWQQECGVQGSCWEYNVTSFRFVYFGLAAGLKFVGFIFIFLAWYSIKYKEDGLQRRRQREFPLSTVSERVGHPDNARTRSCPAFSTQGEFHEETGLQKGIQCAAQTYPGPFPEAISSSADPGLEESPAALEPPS

For the compound `C[C@]12CC[C@H](O)CC1=CC[C@@H]1[C@@H]2CC[C@]2(C)C(=O)[C@H](O)C[C@@H]12` [16α-hydroxydehydroepiandrosterone], the “increase of the uptake into placental BM vesicles by glutarate trans-stimulation” value in the series on placental BM vesicles [1] is on record as 56%.

For the compound `CCCc1nc(C(C)(C)O)c(C(=O)O)n1Cc1ccc(-c2ccccc2-c2nnn[nH]2)cc1` [olmesartan], in the series with placental BM vesicles [1], the “increase of the uptake into placental BM vesicles by glutarate trans-stimulation” value was 33%.

As for `O=C1OC2(c3ccc(O)cc3Oc3cc(O)ccc32)c2ccccc21` [fluorescein, sodium fluorescein], the “transport by OATP5A1 in HEK293-OATP5A1 cells” value (shortened to “transport by OATP5A1”) at OATP5A1 is “none of the substrates tested, namely pravastatin, E3S, PE2 and fluorescein were found to be transported”.

In the case of `CCCCC[C@H](O)/C=C/[C@H]1[C@H](O)CC(=O)[C@@H]1C/C=C\CCCC(=O)O` [PE2, Prostaglandin-E2], the “transport by OATP5A1” value on OATP5A1 is “none of the substrates tested, namely pravastatin, E3S, PE2 and fluorescein were found to be transported”.

Take `CC[C@H](C)C(=O)O[C@H]1C[C@H](O)C=C2C=C[C@H](C)[C@H](CC[C@@H](O)C[C@@H](O)CC(=O)O)[C@H]21` [Pravastatin]: the “Uptake, Transporter-expressing cells” value on OATP2A1 [2] (OATP2A1, 1 μM pravastatin, 37°C, neutral pH) was 0.46 ± 0.06 pmol/mg protein/min; on OATP1A2 (OATP1A2, 0.75 μM [3H]Pravastatin, 37°C, 30 s, neutral pH), 1.73 ± 0.31 pmol/mg protein/min; at OATP5A1 (OATP5A1, 10 μM pravastatin, 37°C, 1 min, neutral pH), 1.85 ± 0.18 pmol/mg protein/min; on OAT4 [5] (Cl-free uptake buffer, 30 s) it was 8.66 ± 0.80 ^*^, # pmol/mg protein/min; on OAT4 [5] (setting [13]) it was 7.04 ± 0.97 ^*^, # pmol/mg protein/min; on OATP2B1 (OATP2B1, 0.75 μM [3H]Pravastatin, 37°C, 1 min, neutral pH), 0.71 ± 0.13 pmol/mg protein/min. The Kt on OATP2A1 [2] (setting [10]) was 188 ± 109 µM; on OATP1A2 (setting [12]), 1.60 ± 0.97 µM; at OAT4 [5] (setting [14]) it was 295 ± 99 µM and 295 ± 99.0 µM; on OAT4 [5] (lower concentration range (high-affinity), 30 s), 30.5 ± 75.0 µM; in the series with OAT4 [7], 257 µM. The Vmax on OATP2A1 [2] (setting [10]) was found to be 73.8 ± 19.2 pmol/mg protein*min^−1; at OATP1A2 (setting [12]), 4.08 ± 0.72 pmol/mg protein*min^−1; on OAT4 [5] (setting [14]), 345 ± 54.8 pmol/mg protein*min^−1; on OAT4 [5] (lower concentration range (high-affinity)) it was 42.0 ± 93.4 pmol/mg protein*min^−1. The “Uptake, Control” value at OATP2A1 [2] (control cells for OATP2A1, 1 μM pravastatin, neutral pH) stood at 0.26 ± 0.06 pmol/mg protein/min; on OATP1A2 (control cells for OATP1A2, 0.75 μM [3H]Pravastatin, 30 s, neutral pH), 0.66 ± 0.15 pmol/mg protein/min; on OATP5A1 (control cells for OATP5A1, 10 μM pravastatin, 1 min, neutral pH) it was 1.62 ± 0.18 pmol/mg protein/min; on OAT4 [5] (Cl-free uptake buffer, 30 s), 1.51 ± 0.24 pmol/mg protein/min; at OAT4 [5] (setting [13]) it was 1.87 ± 0.25 pmol/mg protein/min; at OATP2B1 (control cells for OATP2B1, 0.75 μM [3H]Pravastatin, 1 min, neutral pH), 0.61 ± 0.13 pmol/mg protein/min. In addition, the “Uptake, Net (transporter-mediated)” value at OATP1A2 (OATP1A2, 0.75 μM [3H]Pravastatin, 30 s, neutral pH) came to 1.06 ± 0.32 pmol/mg protein/min; at OATP5A1 (OATP5A1, 10 μM pravastatin, 1 min, neutral pH), 0.23 ± 0.01 pmol/mg protein/min; on OAT4 [5] (30 s, chloride, no glutarate preload), 2.86 ± 0.27 pmol/mg protein/min; on OAT4 [5] (Cl-free uptake buffer, 30 s) it was 7.15 ± 0.59 pmol/mg protein/min; at OAT4 [5] (setting [13]) it was 5.17 ± 0.84 pmol/mg protein/min; on OATP2B1 (OATP2B1, 0.75 μM [3H]Pravastatin, 1 min, neutral pH) it was 0.10 ± 0.16 pmol/mg protein/min. The “apparent Kt” value at OATP1A2 (setting [11]) stood at 23.6 ± 2.87 µM. Moreover, the “apparent Vmax” value on OATP1A2 (setting [11]) is recorded as 361 ± 29.3 pmol/mg protein*min^−1. Moreover, in the series on placental AM vesicles, the “glutarate-stimulated uptake into AM vesicles” value is reported as “insignificant”. In addition, in the series with placenta, the “clearance index, direction of transfer” value was “higher in the fetal-to-maternal direction than in the maternal-to-fetal direction”. The “drug crossing the placenta from the maternal to fetal direction” value with placenta was 18 ± 4%. Moreover, the remaining preloaded pravastatin on OAT4 [3] (OAT4-expressing cells, chloride-free condition, 60 s efflux, preload 4 μM) was determined as 39 ± 2%. For the same compound, the “estimated Ke of the pravastatin efflux” value on OAT4 [3] (chloride-free condition, OAT4-expressing cells) was 2.1 ± 0.5 10^−2s^−1; on OAT4 [3] (chloride-free condition, control cells), 3.6 ± 2.1 10^−2s^−1; at OAT4 [3] (presence of extracellular chloride, OAT4-expressing cells) it was 2.6 ± 0.6 10^−2s^−1; on OAT4 [3] (presence of extracellular chloride, control cells) it was 3.0 ± 1.0 10^−2s^−1. Also, the “transport by OATP5A1” value on OATP5A1 was “none of the substrates tested, namely pravastatin, E3S, PE2 and fluorescein were found to be transported”. The “steady state plasma concentrations” value in series [4] is “nanomolar range”. The “net (glutarate-dependent) uptake into BM vesicles at 4°C” value in the series on placental BM vesicles [6] (4°C, 0.5-2 μM) is “negligible”. In addition, the “trans-stimulatory effect of glutarate on the uptake into placental BM vesicles (increase)” value in the series with placental BM vesicles [6] (BM vesicles, glutarate preload, Fig 1A) was found to be 18%. The “glutarate-stimulated uptake into BM vesicles” value in the series on placental BM vesicles [6] (pravastatin concentrations below 1 μM, 37°C) is “did not detect any glutarate-stimulated uptake”. For the same compound, in the series with placental BM vesicles [6] (two-fold increase of substrate from 1 μM to 2 μM, 37°C), the “glutarate-stimulated uptake into BM vesicles, concentration dependence” value is reported as “proportional increase”. Also, on OATP2B1 (pH 7.4), the OATP2B1-mediated uptake entry is listed as “did not detect any OATP2B1-mediated uptake”.

As to `O=C(O)Cc1ccccc1Nc1c(Cl)cccc1Cl` [diclofenac], on OATP2A1 [8] (diclofenac 20 μM), the “decrease of the net, OATP2A1-dependent, uptake of pravastatin” value is given as 50%. On OATP2A1 [8] (diclofenac 200 μM), the “effect on uptake of pravastatin into OATP2A1-expressing cells” value is listed as “did not result in a statistically significant decrease”.

As for `C[C@]12CC[C@@H]3c4ccc(OS(=O)(=O)O)cc4CC[C@H]3[C@@H]1CCC2=O` [E3S, estrone-3-sulfate], the “inhibition of OAT4-mediated uptake of pravastatin” value against OAT4 [9] was “complete inhibition”.
